Among the test systems are CAKI-1 renal; HOP-92 NSCLC; HT29 colon; IGROV1 ovarian; K-562 leukemia; KM12 colon; LOX IMVI melanoma; RXF 393 renal; SK-OV-3 ovarian; SN12C renal.
Common to all, as to test: growth of human tumour cells (NCI), 48 h

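Five compound concentrations were applied to cells in 96-well plates for 48 hours; endpoints were derived by simple linear interpolation of the resulting dose-response curve. GI50 = concentration required for 50% inhibition of growth. Definition used: TGI = concentration required for complete inhibition of growth.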

With `Nc1cc2c3c(cccc3c1)C(=O)N(CCN1CCCC1)C2=O`, the GI50 in the assay with CAKI-1 renal is 1.43 µM; in the assay with HOP-92 NSCLC, 2.94 µM; in the assay on HT29 colon it was 3.11 µM; in the assay with IGROV1 ovarian, 1.33 µM; in the assay with K-562 leukemia it was 3.75 µM; in the assay with KM12 colon, 3.66 µM. The GI50 in the assay with LOX IMVI melanoma was 2.25 µM; in the assay on RXF 393 renal, 6.43 µM; in the assay on SK-OV-3 ovarian it was 2.16 µM; in the assay with SN12C renal it was 2.73 µM. Also, the TGI with CAKI-1 renal was 5.83 µM; in the assay with HOP-92 NSCLC, over 54.4 µM; in the assay with HT29 colon, 22.2 µM; in the assay with IGROV1 ovarian it was over 100 µM; with K-562 leukemia it was over 37.6 µM; in the assay on KM12 colon it was 51.2 µM. Also, the TGI is 13.4 µM in the assay on LOX IMVI melanoma, 42.3 µM with RXF 393 renal, 22.7 µM in the assay with SK-OV-3 ovarian and over 84.8 µM with SN12C renal.
For the compound `Cn1c(COC(=O)NCCc2ccccn2)nc2c(N3CCOCC3)nc(Cl)nc21`, the GI50 in the assay with CAKI-1 renal was 0.974 µM; with HOP-92 NSCLC it was 1.13 µM; in the assay on HT29 colon it was 1.17 µM; in the assay with IGROV1 ovarian, 1.31 µM; with K-562 leukemia it was 1.63 µM; with KM12 colon it was 1.8 µM. Besides, the GI50 in the assay on LOX IMVI melanoma was 0.899 µM; with RXF 393 renal, 1.06 µM; with SK-OV-3 ovarian it was 12 µM; in the assay with SN12C renal, 1.37 µM. The TGI was 2.16 µM in the assay with CAKI-1 renal; 3.22 µM in the assay on HOP-92 NSCLC; 3.17 µM with HT29 colon; 2.84 µM with IGROV1 ovarian; 75.2 µM with K-562 leukemia; 4.75 µM in the assay with KM12 colon. In addition, the TGI in the assay with LOX IMVI melanoma came out at 2.39 µM; with RXF 393 renal it was 2.45 µM; in the assay with SK-OV-3 ovarian, 24.3 µM; in the assay with SN12C renal it was 3.48 µM.
Consider `O=c1c2cccnc2ncn1CCCN1CCCCC1`, for which the TGI with CAKI-1 renal, with HOP-92 NSCLC, with HT29 colon, in the assay on IGROV1 ovarian, in the assay with K-562 leukemia and in the assay on KM12 colon was over 100 µM in each case. Further, the TGI in the assay with LOX IMVI melanoma, in the assay with RXF 393 renal, with SK-OV-3 ovarian and in the assay on SN12C renal was over 100 µM in each case.
As to `CC1CCC2C(C)C(=O)OC2C2(C)C(=O)C=CC12` (stereo not given), the TGI in the assay on CAKI-1 renal, in the assay on HOP-92 NSCLC, in the assay on HT29 colon, in the assay on IGROV1 ovarian, with K-562 leukemia and in the assay on KM12 colon was over 10 µM throughout. Further, the TGI in the assay with LOX IMVI melanoma, in the assay with RXF 393 renal, in the assay on SK-OV-3 ovarian and in the assay on SN12C renal was over 10 µM throughout.
On to `Cc1cccc(C)c1NC(=O)C(=O)Cc1nc2ccccc2s1`, for which the TGI with CAKI-1 renal, in the assay on HOP-92 NSCLC, with HT29 colon, with IGROV1 ovarian, with K-562 leukemia and in the assay with KM12 colon was over 100 µM throughout. The TGI in the assay on LOX IMVI melanoma, with RXF 393 renal, in the assay on SK-OV-3 ovarian and with SN12C renal was over 100 µM in each case.
Take `C1=CC(=P(c2ccccc2)(c2ccccc2)c2ccccc2)C=C1`: the TGI in the assay on CAKI-1 renal turned out to be 32.3 µM; with HOP-92 NSCLC, 22.8 µM; in the assay with HT29 colon, 23.7 µM; in the assay with IGROV1 ovarian, 24.6 µM; in the assay with K-562 leukemia, 11.3 µM; with KM12 colon, 24.4 µM. In addition, the TGI was determined as 24.6 µM in the assay on LOX IMVI melanoma, 28.2 µM in the assay with RXF 393 renal, 35.3 µM in the assay with SK-OV-3 ovarian and 43.4 µM in the assay on SN12C renal.
As for `Oc1ccc(Cl)cc1C=Nc1cnc2ccccc2c1`, the TGI in the assay with CAKI-1 renal, in the assay with HOP-92 NSCLC, in the assay on HT29 colon, in the assay on IGROV1 ovarian, with K-562 leukemia and in the assay with KM12 colon was over 100 µM throughout. Besides, the TGI in the assay on LOX IMVI melanoma, in the assay with RXF 393 renal, in the assay on SK-OV-3 ovarian and in the assay with SN12C renal was over 100 µM in each case.
Regarding `CSc1nc(Nc2cccc(NC(=O)CCl)c2)c(C#N)c(-c2cccc([N+](=O)[O-])c2)n1`, the GI50 in the assay on CAKI-1 renal is 2.12 µM; in the assay on HOP-92 NSCLC, 1.92 µM; in the assay with HT29 colon it was 2.36 µM; in the assay with IGROV1 ovarian, 0.214 µM; in the assay on K-562 leukemia it was 2.28 µM; in the assay with KM12 colon, 1.93 µM. The GI50 is 0.0373 µM in the assay with LOX IMVI melanoma, 1.54 µM with RXF 393 renal, 4.36 µM in the assay with SK-OV-3 ovarian and 2.78 µM in the assay on SN12C renal. Further, the TGI with CAKI-1 renal is 10.4 µM; with HOP-92 NSCLC, 7.07 µM; in the assay on HT29 colon it was 5.53 µM; in the assay on IGROV1 ovarian, 0.685 µM; in the assay on K-562 leukemia, over 100 µM; in the assay on KM12 colon, 3.92 µM. The TGI in the assay on LOX IMVI melanoma worked out at 0.152 µM; in the assay on RXF 393 renal, 3.22 µM; with SK-OV-3 ovarian, 17.3 µM; in the assay with SN12C renal, 10.3 µM.
As for `Cc1ccc(/C(=N/Nc2ccc([N+](=O)[O-])cc2)Sc2cc(Cl)c(C)cc2S(N)(=O)=O)cc1`, the GI50 was 1.61 µM with CAKI-1 renal; 1.45 µM with HOP-92 NSCLC; 1.31 µM in the assay with HT29 colon; 2.44 µM in the assay on IGROV1 ovarian; 3.11 µM in the assay on K-562 leukemia; 1.37 µM in the assay on KM12 colon. Moreover, the GI50 is 1.49 µM in the assay on LOX IMVI melanoma, 2.01 µM in the assay with RXF 393 renal, 1.94 µM in the assay with SK-OV-3 ovarian and 1.69 µM in the assay on SN12C renal. Further, the TGI with CAKI-1 renal was 3.27 µM; in the assay with HOP-92 NSCLC, 3.77 µM; in the assay with HT29 colon, 3.12 µM; in the assay on IGROV1 ovarian it was 14.6 µM; in the assay on K-562 leukemia, over 38.4 µM; with KM12 colon it was 3.18 µM. For the same compound, the TGI came to 3.45 µM with LOX IMVI melanoma, 6.52 µM with RXF 393 renal, 4.34 µM with SK-OV-3 ovarian and 3.95 µM in the assay with SN12C renal.
